Measured values as given in patent publication US6218112A, “Optimization of gene delivery and gene delivery system” (Cobra Therapeutics Limited, priority 1997, dated 2001).
“Also recorded” adds a separate entry of the source. * marks the point of attachment. Palmitoyl = CCCCCCCCCCCCCCCC(=O)*; Acm = CC(=O)NC*

Tests used:
[1] = tested on: Tumor Cells; experiment: In vitro transfection with complexes containing lipidated peptides; type: cell-based
Protocol: (§1) After incubation the cells are lysed and are assayed for gene expression. In the case of the luciferase reporter gene, luciferin and ATP are added to lysed cells and the light emitted is measured with a luminometer (see deWet et al., supra).
For the data provided in FIG. 8, complexes were assembled as described herein using NBC2 and Lip2 as condensing peptides.

[2] = tested on: Jurkat cell line; experiment: In vitro transfection with pRSVLuc (luciferase) condensed on peptides; type: cell-based; conditions: peptide 2 μg/μg plasmid DNA
Protocol: as §1
Cell lines such as Jurkat and K562 grow in suspension and can be transfected and the level of transgene expression (luciferase activity) determined b) the following method. Cells are harvested on the day of assay by centrifugation at 1200 rpm for 5 mins at room temperature. The cell pellet is resuspended in phosphate buffered saline and re-centrifuged. This operation is performed twice. […] The cells are then aliquoted into tubes and 0.75 ml of RPMI medium added, followed by 0.04-0.08 ml of 100 mM Chloroquine and finally 0.25 ml of DNA-complex solution. The transfection is then allowed to proceed by incubating the cells at 37° C. for 4 h. After this time the cells are harvested by centrifugation at 2000 rpm. The cells are then suspended in 1 ml of RPMI medium and re-centrifuged. Finally the cells are suspended in 0.5 ml RPMI medium containing 10% foetal bovine serum. Each 0.5 ml of transfected cell suspension is transferred to a well of a 12 well plastic culture plate containing 1.5 ml of RPMI 10% FBS. The original transfection tube is rinsed with a further 1 ml of medium and the wash transferred to the culture dish making a final volume of 3 ml. The culture plate is then incubated at 37° C. for 24-90 h in an atmosphere of 5% CO2. The contents of each well in the culture dish are transferred to centrifuge tubes and the cells collected by centrifugation at 13000 rpm. The pellet is resuspended in 0.12 ml of Lysis Buffer (100 mM sodium phosphate, pH 7.8; 8 mM magnesium chloride, 1 mM EDTA; 1% Triton X-100 and 15% glycerol) and agitated with a pipette. The lysate is centrifuged at 13000 rpm for 1 min and the supernatant collected. 80 μl of the supernatant are transferred to a luminometer tube. The luciferase activity is then assayed using a Berthold Lumat L9501 luminometer. The assay buffer used is Lysis Buffer containing 10 mM Luciferin and 100 mM ATP. Light produced by the luciferase is integrated over 4s and is described as relative light units (RLU). The data are converted to RLU/ml of lysate, RLU/cell or RLU/mg protein (protein concentration of the lysate having been determined in this case by the BioRAD Lowry assay.
In order to compare the relative efficiency of transfection of complexes composed of different NBC condensation peptides or poly-L-lysine, pRSVLuc DNA at a concentration of 100 μg/ml was condensed using peptide at a ratio of 2 μg/μg plasmid DNA as described herein with the following deviation: prior to addition to the cells (Jurkat cell line) the complexes were diluted to 20 μg/ml with 10% PEG 10 000; 37 mM sodium chloride; 25 mM sodium phosphate, pH 7.4. The cells were assayed for luciferase after 24 h.

[3] = tested on: plasmid nucleic acid pRSVLuc; experiment: Surface plasmon resonance (BIAcore) binding kinetics of peptides/conjugates to immobilized biotinylated plasmid DNA; conditions: for ka: apparent rate constant for association; for ka / kd: SPR, PBS, 25° C.; for kd: apparent rate constant for dissociation
Protocol: In the examples described below, SPR was detected using the BIAcore system. This machine contained an SPR detector and an integrated microfluidic cartridge which is engineered such that an analyte solution (cationic peptide) is continuously passed over the sensor chip. The sensor chip consists of a glass plate coated with a thin film of gold covered in a layer of carboyxymethyl dextran. The chip used has a dextran layer to which streptavidin is covalently attached. The chip is prepared for use by adding biotinylated nucleic acid which will be bound to the chip via the streptavidin-biotin interaction, and the same chip is used in a series of experiments.
As material binds to the immobilized nucleic acid molecule on the sensor chip, the SPR angle of plane polarized light shining on the surface of the chip is monitored by the detector. Changes in angle are defined as resonance units (RU) and data are collected every second. Background effects are detected and automatically subtracted by the use of a control flow cell in line with the nucleic acid flow cell.
A typical sensorgram has three phases: an association phase, an equilibrium phase and a dissociation phase (see FIG. 1). The rise in signal occurs as more peptide binds to the immobilized plasmid DNA until equilibrium conditions are reached. The height of the peak is directly proportional to the mass of peptide bound. If the flow continues with buffer containing no peptide, peptide begins to dissociate from the complex and the resonance signal is reduced. The sensorgram can be used to compute apparent rate constants for each of the three individual processes.
(1) dC/dt=ka [PF ] [Pmax -PB ]-kd [PB ]
Measurement of Binding Kinetics by Surface Plasmon Resonance
A 6 kilobase (kb) plasmid DNA (pRSVLuc) was biotinylated using photoactivatable biotin (Pierce and Warriner) as per manufacturer's instructions.
A sensor chip with immobilized streptavidin (SA5) was conditioned following manufacturer's instructions, i.e., three one-minute injections of 1 M NaCl: 50 mM NaOH followed by one 1 min injection of 0.5% SDS. Flow rate on the BlAcore sensing device was 20 μl per min, running buffer was phosphate buffered saline (PBS). Flow path was flow cells 1 and 2.
The flow path was switched to flow cell 2 only and the flow rate was reduced to 10 μl per minute. Biotinylated plasmid at a concentration of […] in 0.5M NaCl was injected for 3 mins.
Phosphate buffered saline was used as running buffer at a flow rate of 20 μl per minute. The flow path was over flow cells 1 and 2. Flow cell 1 was used as a reference cell. The experiments were carried out at a temperature of 25° C.
Peptides were injected at various concentrations for three minutes. The injection was followed by a 5 min dissociation phase before the injection port was washed. The sensor chip was regenerated by the injection of 2M NaCl for 1 min. If necessary, this injection was repeated to bring the response back down to baseline before the next peptide sample was injected.
The data was analysed using the methods described in the handbook (BIAevaluation 2.1. Software Handbook, Pharmacia Biosensor AB, Uppsala, Sweden).
Essentially the plots were evaluated as follows: The dissociation constant, kd, was determined first. A curve or family of curves (same NBC at different concentrations) were plotted as response (Y) versus time as Ln (Yo/Y) versus time. In the area where the Ln(Yo/Y) curve was linear, a fit of the default dissociation model [AB]=[A]+[B] was made. The association constant, ka, was then calculated by fitting the related association model on that part of the association curve where a plot of In(abs(dY/dt) versus time was linear. KD were approximated by dividing the calculated kd with the calculated ka.

[4] = tested on: cells; experiment: Transfection efficiency / activity of complexes (general statement); type: cell-based; conditions: related to affinity for nucleic acid
[5] = tested on: KLN-205 squamous epithelial syngenic tumour cells; experiment: In vivo transfection of KLN-205 tumours in DBA2 mice by local injection of peptide/plasmid complexes (nitroreductase immunostaining); parameters: species or system mouse; conditions: 0.5 μg peptide/μg DNA, intratumoural injection
Protocol: A representative in via cell transfection system is transfection of tumor cells using a murine carcinoma model.
The murine carcinoma model DBA2 containing the squamous epithelial syngenic tumour cell line KLN-205 was prepared as described in the Examples. A transfecting complex was prepared using a solution of plasmid DNA encoding a reporter gene or, for example, nitroreductase and a selected NBC peptide 0.5 μg peptide/μg DNA, as described herein. Where desired, a conjugate peptide was added to the transfecting complex, at a concentration of 0.1-0.3 μg […] peptide/μg DNA.
Transfection efficiency may be determined in a number of ways, including assessing the effect of the reporter gene on the target tissue, or by quantitating the gene product. Below, tissues samples were obtained and nitroreductase gene expression was ascertained via staining of tissue sections.
The ability to transfect tumor cells in vivo in mice was tested using plasmid nucleic acid carrying the nitroreductase reporter gene condensed on each of the following peptides: NBC15, NBC8, NBC9, NBC11, NBC7.
DBA2--male mice, aged 5-10 weeks were injected subcutaneously in each flank with a squamous epithelial syngenic tumour cell line KLN-205. The cell line was grown up in 175 ml T-flasks in standard EMEM medium containing 10% foetal calf serum. When the cells reached a density of 4×10^6 they were suspended by a standard trypsinization technique, washed in PBS and diluted to a final concentration of […].
The anaesthetic was Enflurane (Alynane; Anaquest, Ltd., Windlesham, Surrey UK): Ketamine (10% Ketaset, Willows Francis Veterinary, Cramley, West Sussex, UK); Rompun (2%, Bayer UK, Ltd., Suffolk, UK). For 10 ml anaesthetic mixture: 8.5 ml PBS; 1 ml Ketamine; 0.5 ml Rompun. Each animal was injected intra-peritoneally with 200 μl/animal using 1 ml syringe with 25 gauge needle. Once anaesthetized, the tumour is manipulated between the fingers lifting it slightly away from the animal's body and at the same time apply minimum pressure to the tumour. Using a 0.5 ml insulin needle the formulated delivery vehicle (a plasmid containing the E. coli nitroreductase gene condensed on a peptide at a ratio of 0.5 μg peptide/μg DNA) to be injected is taken up and the tumour is injected horizontally trying to avoid any visible blood vessels and necrotic or abnormal tissue. Daily monitoring is continued until the experiment is terminated.
7μ sections of frozen tumour tissue are prepared using standard methods and a Cryostat and air dried. Sections are fixed with freshly prepared 4% PFA/PBS for 30 mins at room temperature and then washed twice with 0.01% Tween-20/PBS 5 mins each wash. Sections are then immersed in 0.25% hydrogen peroxide/PBS, at room temperature (20C.) for 30 mins, and then washed three times in 0.01% Tween 20/PBS for 5 mins each wash. Sections are then permeabilised by treatment with ice cold 0.1 % TRITON X-100 for 5 mins, followed by a further two washes in 0.01% Tween-20/PBS 5mins each wash. The sections are then blocked with 5% NGS/PBS 60mins at room temperature in a wetbox. After decanting the blocking solution, 0.5 ml diluted antiserum/slide (1:400 in 2.5% NGS) is added and the sections incubated for 60 mins at room temperature. Slides are then washed three times in 0.01% Tween-20/PBS 5 mins each wash. Secondary antibody (0.5 ml) from ABC Elite Vector stain kit is added as follows and incubated 30 mins at room temperature in a wetbox.
The tumour is a murine syngenic squamous carcinoma produced by subcutaneous injection of KLN205 cells. When the tumours were approximately 4 mm in diameter they were injected with 20 μl of plasmid DNA formulated with the NBC15 peptide. After 48 h the tumours were excised and sectioned by standard histological techniques and immunostained for expression of the transgene (E. coli nitroreductase). […] In this case the tumours were injected with the same plasmid formulated in 0.5 μg NBC9 peptide/μg DNA.

CH3-(CH2)14-CONH-KPKAAKPKKPKKKRKVEKKSPKKAKKPAAC(Acm)SEQ ID NO:11-COOH (Palmitoyl-KPKAAKPKKPKKKRKVEKKSPKKAKKPAAC(Acm)-OH; SMILES CCCCCCCCCCCCCCCC(=O)N[C@@H](CCCCN)C(=O)N1CCC[C@H]1C(=O)N[C@@H](CCCCN)C(=O)N[C@@H](C)C(=O)N[C@@H](C)C(=O)N[C@@H](CCCCN)C(=O)N1CCC[C@H]1C(=O)N[C@@H](CCCCN)C(=O)N[C@@H](CCCCN)C(=O)N1CCC[C@H]1C(=O)N[C@@H](CCCCN)C(=O)N[C@@H](CCCCN)C(=O)N[C@@H](CCCCN)C(=O)N[C@@H](CCCNC(=N)N)C(=O)N[C@@H](CCCCN)C(=O)N[C@H](C(=O)N[C@@H](CCC(=O)O)C(=O)N[C@@H](CCCCN)C(=O)N[C@@H](CCCCN)C(=O)N[C@@H](CO)C(=O)N1CCC[C@H]1C(=O)N[C@@H](CCCCN)C(=O)N[C@@H](CCCCN)C(=O)N[C@@H](C)C(=O)N[C@@H](CCCCN)C(=O)N[C@@H](CCCCN)C(=O)N1CCC[C@H]1C(=O)N[C@@H](C)C(=O)N[C@@H](C)C(=O)N[C@@H](CSCNC(C)=O)C(=O)O)C(C)C) [Lip2]
transfection efficiency, lipidated peptide with free underivatized peptide ([1]; Lip2 with NBC2, FIG. 8): transfection efficiency is augmented; also recorded: more than two orders of magnitude
transfection efficiency, condensation with lipidated peptide alone ([1]; complete condensation with palmitoyl-NBC2 (Lip2) alone): extremely poor transfection efficiencies

H-TKKKKKKKKKKKKKKKKKKC-OH [NBC14]
transfection compared with polydisperse poly-L-lysine ([2]; luciferase): significantly better transfection agents than the polydisperse poly-L-lysine
ka [3]: 211000 M⁻¹ s⁻¹
kd [3]: 0.00075 s⁻¹

NH2-KKSPKKAKKPAAKKSPKKAKKPAAKKSPKKAKKPAAKKSPKKAKKPAYC(Acm)-COOH (H-KKSPKKAKKPAAKKSPKKAKKPAAKKSPKKAKKPAAKKSPKKAKKPAYC(Acm)-OH) [NBC10]
transfection efficiency [4]: not completely deleterious to transfection
ka [3]: 219000 M⁻¹ s⁻¹
kd [3]: 0.0011 s⁻¹
apparent dissociation constant kd ([3]; approximate values): approximately 1×10^-3 sec^-1
Kd ([3]; approximate values, read-out: equilibrium dissociation constant KD): ~5 nM

poly-lysine [reference compound]
rank in order of relative transfection efficiency (most to least efficient) ([2]; luciferase after 24 h, FIG. 7): NBC11>NBC13>NBC8>>NBC15>>>polylysine
ranking by numbers of transfected tumor cells (most to least efficient) [5]: NBC15>NBC8, NBC9, NBC11>NBC7>>>poly-lysine
number of transfected tumor cells / level of transfection ([5]; 48 h, nitroreductase immunostaining): the fewest number of transfected tumor cells
